# Assay: Lethal dose upon intraperitoneal administration.
# Assay type: ADME
# Settings: ip
smiles,measurement,value
O=C(NC1=CC(=O)[C@]2(CO)O[C@@H]2C1=O)c1ccccc1O,LD50,50 mg/kg
